Measured values published in patent publication US20150119317A1, “ORAL SOLID DOSAGE FORMULATION OF 1,1-DIMETHYLETHYL [(1S)-1-CARBAMOYL)PYRROLIDIN-1-YL]CARBONYL}-2,2-DIMETHYLPROPYL]CARBAMATE” (BRISTOL-MYERS SQUIBB COMPANY, priority 2012, published 2015).

Assay: Bioequivalence study: PK of wet and dry granulated tablets in a dog model
Format: in vivo
Details: fed state with 50 ml high-fat meal substitute
Protocol: A study was conducted to compare conventional tablet dosage forms. The goal of the study was to assess the in vivo performance of various prototypes of conventional tablet dosage forms (wet and dry granulated tablets) in a dog model.
The following five formulations were tested: […]
1. Phase 2 Clinical (dry granulated (DG)) tablet 2×200 mg.
2. Wet granulated (WG) Vitamin E TPGS/poloxamer tablet: 50% w/w Compound I+4.67% w/w Vitamin E TPGS+4% w/w poloxamer+14.33% w/w microcrystalline cellulose+15% lactose monohydrate+11.5% w/w croscarmellose sodium+0.5% w/w magnesium stearate; 2×200 mg (Corresponds to the formulation shown above in Table 1).
3. WG poloxamer tablet: 50% w/w Compound I+2% w/w polyvinyl pyrrolidone+4% w/w poloxamer+16% microcrystalline cellulose+16% w/w lactose monohydrate+11.5% w/w croscarmellose sodium+0.5% w/w magnesium stearate; 2×200 mg (Corresponds to the formulation shown above in Table 5).
4. Amorphous API tablet: 50% w/w Compound I+41.25% w/w microcrystalline cellulose+5% w/w croscarmellose sodium+2% w/w silicon dioxide+1% w/w sodium lauryl sulphate+0.75% w/w magnesium stearate; 2×200 mg.
5. Solution Formulation: Polyethylene glycol 400:EtOH: polysorbate 80 (50:35:15), 20 mg/mL.
The protocol used was as follows:
[…] For food-effect studies in the fed state, dogs were given 50 ml high-fat meal substitute instead of water.

food effect: significant positive food effect
SMILES: C=C[C@@H]1C[C@]1(NC(=O)[C@@H]1C[C@@H](Oc2ncc(OC)c3ccc(Cl)cc23)CN1C(=O)[C@@H](NC(=O)OC(C)(C)C)C(C)(C)C)C(=O)NS(=O)(=O)C1CC1 [Compound I, 1,1-dimethylethyl[(1S)-1-{[(2S,4R)-4-(7-chloro-4methoxyisoquinolin-1-yloxy)-2-({(1R,2S)-1-[(cyclopropylsulfonyl)carbamoyl]-2-ethenylcyclopropyl}carbamoyl)pyrrolidin-1-yl]carbonyl}-2,2-dimethylpropyl]carbamate]
